Measured values from publication PMC12332667, “Role of Structural Modifications in Peptidomimetic Compounds as Potential Antimicrobial Agents against Staphylococcus aureus and Streptococcus pyogenes: Balancing Bioavailability, Safety, and Antimicrobial Activity” (ACS Omega, 2025).
Values after ≈ are worked out from the molar mass of the structure shown.

What was measured:
E. faecalis c.i. = assay: MIC/MBC broth microdilution, E. faecalis; format: cell-based, Enterococcus faecalis
Method in brief: (§1)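 Broth microdilution per NCCLS in BHI, ~10^5 CFU/mL inoculum, serially diluted peptidomimetics (stock 1024 μg/mL in water with 5–10% ethanol or DMSO), 18 h at 37 °C. MIC: lowest concentration with no obvious growth (≥90% of untreated); MBC: ≤3 colonies, ≥99.9% kill.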

S. schleiferi c.i. = assay: MIC/MBC broth microdilution, S. schleiferi; format: cell-based, Staphylococcus schleiferi
Method in brief: as §1

S. intemrdius c.i. = assay: MIC/MBC broth microdilution, S. intermedius; format: cell-based, Staphylococcus intermedius
Method in brief: as §1

S. mutans c.i. = assay: MIC/MBC broth microdilution, S. mutans; format: cell-based, Streptococcus mutans
Method in brief: as §1

E. coli ATCC 25922 = assay: MIC/MBC broth microdilution, E. coli; format: cell-based, Escherichia coli
Method in brief: as §1

P. vulgaris ATCC 6896 = assay: MIC/MBC broth microdilution, P. vulgaris; format: cell-based, Proteus vulgaris
Method in brief: as §1

[1] = system: K. pneumoniae ATCC 700603; assay: MIC/MBC broth microdilution, K. pneumoniae; format: cell-based
Method in brief: as §1

P. aeruginosa ATCC 10145 = assay: MIC/MBC broth microdilution, P. aeruginosa; format: cell-based
Method in brief: as §1

[2] = Hydrophobicity by reverse-phase chromatography; format: physicochemical; conditions: acetonitrile content in the mobile phase at the retention time
Text: Reverse-phase chromatography was employed to assess the hydrophobicity characteristics of the peptidomimetics. Hydrophobicity was quantified by determining the acetonitrile content in the mobile phase at the retention time of a peptidyl derivative (Table S2). The least hydrophobic compound (40% acetonitrile) was A-198, which aligns with the calculations of hydrophobicity by SwissADME and pkCSM (Table ). Next in the hydrophobicity sequence were A-197, A-220, A-219, A-174, and A-221, eluting with 42.5-43.9% of acetonitrile. Then there were followed by […], and A-179, with the acetonitrile percentage of 44.8-49.8. The compounds A-176, A-20, A-152, A-134, and A-210 needed over 50% of acetonitrile to be eluted from the column.

[3] = system: immortalized human keratinocytes (HaCaT); assay: LDH cytotoxicity test, keratinocytes; format: cell-based; conditions: 48 h, 150 μg/mL
Method in brief: (§2)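 HaCaT keratinocytes and 46BR.1N fibroblasts, 5000 cells per well, grown 24 h, then exposed to peptidomimetics at 50, 100 and 150 μg/mL in serum-free medium for 48 h. LDH release in supernatant read at 450 nm, normalized to untreated (0%) and 1% Triton X-100 (maximal) controls.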

fibroblasts (46BR.1N) = assay: LDH cytotoxicity test, fibroblasts; format: cell-based; conditions: 48 h, 150 μg/mL
Method in brief: as §2

[4] = system: immortalized human HaCaT keratinocytes; assay: XTT cell proliferation assay, keratinocytes; format: cell-based
Method in brief: (§3)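 Cells at 37 °C, 5% CO2 received peptidomimetics in serum-free HG-DMEM for 48 or 72 h; for 72 h, half the medium was renewed and peptide re-added at 48 h. XTT reagent was then incubated 4 h and absorbance read at 490 nm; Mann–Whitney U test, p ≤ 0.05.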

[5] = system: human dermal fibroblast cell line (46BR.1N); assay: XTT cell proliferation assay, fibroblasts; format: cell-based
Method in brief: as §3

[6] = A-196 0.01–10 μg/mL, A-219 above 0.1 μg/mL, A-213 lower concentrations
[7] = XTT, 48 and 72 h, 0.01–150 μg/mL

Compound: CC[C@@H](CNC(=O)/C=C/c1ccccc1)NC(=O)[C@H](CC(C)C)NC(=O)[C@H](CCCNC(=N)N)NC(=O)OCc1ccccc1 [Compound A-213]
- MBC (E. faecalis c.i.; H2O): 256 µg/mL (≈ 412 µM)
- MIC (E. faecalis c.i.; H2O): 256 µg/mL (≈ 412 µM)
- MBC (E. faecalis c.i.; water additive DMSO): 256 µg/mL (≈ 412 µM)
- MIC (E. faecalis c.i.; water additive DMSO): 256 µg/mL (≈ 412 µM)
- MBC (E. faecalis c.i.; water additive EtOH): 256 µg/mL (≈ 412 µM)
- MIC (E. faecalis c.i.; water additive EtOH): 256 µg/mL (≈ 412 µM)
- MBC (S. schleiferi c.i.; H2O): 32 µg/mL (≈ 51.5 µM)
- MIC (S. schleiferi c.i.; H2O): 32 µg/mL (≈ 51.5 µM)
- MBC (S. schleiferi c.i.; water additive DMSO): 32 µg/mL (≈ 51.5 µM)
- MIC (S. schleiferi c.i.; water additive DMSO): 16 µg/mL (≈ 25.7 µM)
- MBC (S. schleiferi c.i.; water additive EtOH): 32 µg/mL (≈ 51.5 µM)
- MIC (S. schleiferi c.i.; water additive EtOH): 32 µg/mL (≈ 51.5 µM)
- MIC (S. intemrdius c.i.; H2O): 32 µg/mL (≈ 51.5 µM)
- MIC (S. intemrdius c.i.; water additive DMSO): 32 µg/mL (≈ 51.5 µM)
- MIC (S. intemrdius c.i.; water additive EtOH): 32 µg/mL (≈ 51.5 µM)
- MBC (S. mutans c.i.; H2O): 8 µg/mL (≈ 12.9 µM)
- MIC (S. mutans c.i.; H2O): 4 µg/mL (≈ 6.43 µM)
- MBC (S. mutans c.i.; water additive DMSO): 8 µg/mL (≈ 12.9 µM)
- MIC (S. mutans c.i.; water additive DMSO): 4 µg/mL (≈ 6.43 µM)
- MBC (S. mutans c.i.; water additive EtOH): 8 µg/mL (≈ 12.9 µM)
- MIC (S. mutans c.i.; water additive EtOH): 4 µg/mL (≈ 6.43 µM)
- MBC (E. coli ATCC 25922; H2O): 256 µg/mL (≈ 412 µM)
- MIC (E. coli ATCC 25922; H2O): 256 µg/mL (≈ 412 µM)
- MBC (E. coli ATCC 25922; water additive DMSO): 512 µg/mL (≈ 823 µM)
- MIC (E. coli ATCC 25922; water additive DMSO): 256 µg/mL (≈ 412 µM)
- MBC (E. coli ATCC 25922; water additive EtOH): 256 µg/mL (≈ 412 µM)
- MIC (E. coli ATCC 25922; water additive EtOH): 256 µg/mL (≈ 412 µM)
- MIC (P. vulgaris ATCC 6896; H2O): > 512 µg/mL
- MIC (P. vulgaris ATCC 6896; water additive DMSO): > 512 µg/mL
- MIC (P. vulgaris ATCC 6896; water additive EtOH): > 512 µg/mL
- MIC ([1]; H2O): > 512 µg/mL
- MIC ([1]; water additive DMSO): 512 µg/mL (≈ 823 µM)
- MIC ([1]; water additive EtOH): 512 µg/mL (≈ 823 µM)
- MIC (P. aeruginosa ATCC 10145; H2O): 512 µg/mL (≈ 823 µM)
- MBC (P. aeruginosa ATCC 10145; water additive DMSO): 512 µg/mL (≈ 823 µM)
- MIC (P. aeruginosa ATCC 10145; water additive DMSO): 256 µg/mL (≈ 412 µM)
- MBC (P. aeruginosa ATCC 10145; water additive EtOH): 256 µg/mL (≈ 412 µM)
- MIC (P. aeruginosa ATCC 10145; water additive EtOH): 256 µg/mL (≈ 412 µM)
- % AcCN (acetonitrile required for elution from the column) [2]: 54.6%
- cytotoxicity (LDH) at 150 μg/mL [3]: ~10%
- cytotoxicity (LDH) at 150 μg/mL (fibroblasts (46BR.1N)): ~10%
- pro-proliferative effect above control [4, 6]: 20–30%
- proliferation relative to control at 150 μg/mL (highest tested concentration) ([4]; XTT, 150 μg/mL): around 25%
- effect on proliferation, in words [4, 7]: pro-proliferating effect at lower concentrations followed by an antiproliferative effect at higher concentrations
- pro-proliferative effect above control [5, 6]: 20–30%
- proliferation relative to control at 150 μg/mL (highest tested concentration) ([5]; XTT, 150 μg/mL): around 25%
- effect on proliferation, in words [5, 7]: pro-proliferating effect at lower concentrations followed by an antiproliferative effect at higher concentrations
